Results taken from patent US20200113181A1, “HERBICIDAL COMPOUNDS” (SYNGENTA PARTICIPATIONS AG, priority 2016, published 2020).

Tests used:
Format in all cases: in vivo
Lolium perenne (LOLPE) = assay: Glasshouse herbicide test, pre- and post-emergence, Lolium perenne; details: 250 g/h, evaluated after 13 days; for LOLPE POST, percentage damage caused to the plant (five point scale): post-emergence; for LOLPE PRE, percentage damage caused to the plant (five point scale): pre-emergence
Method: (§1) Seeds of a variety of test species are sown in standard soil in pots (Lolium perenne (LOLPE), Setaria faberi (SETFA), Alopecurus myosuroides (ALOMY), Echinochloa crus-galli (ECHCG), Avena fatua (AVEFA)). After cultivation for one day (pre-emergence) or after 8 days cultivation (post-emergence) under controlled conditions in a glasshouse (at 24/16° C., day/night; 14 hours light; 65% humidity), the plants are sprayed with an aqueous spray solution derived from the formulation of the technical active ingredient in acetone/water (50:50) solution containing 0.5% Tween 20 (polyoxyethelyene sorbitan monolaurate, CAS RN 9005-64-5). Compounds are applied at […]. The test plants are then grown in a glasshouse under controlled conditions in a glasshouse (at 24/16° C., day/night; 14 hours light; 65% humidity) and watered twice daily. After 13 days for pre and post-emergence, the test is evaluated for the percentage damage caused to the plant. The biological activities are shown in the following table on a five point scale (5=80-100%; 4=60-79%; 3=40-59%; 2=20-39%; 1=0-19%).

Avena fatua (AVEFA) = assay: Glasshouse herbicide test, pre- and post-emergence, Avena fatua; details: 250 g/h, evaluated after 13 days; for AVEFA POST, percentage damage caused to the plant (five point scale): post-emergence; for AVEFA PRE, percentage damage caused to the plant (five point scale): pre-emergence
Method: as §1

Setaria faberi (SETFA) = assay: Glasshouse herbicide test, pre- and post-emergence, Setaria faberi; details: 250 g/h, evaluated after 13 days; for SETFA POST, percentage damage caused to the plant (five point scale): post-emergence; for SETFA PRE, percentage damage caused to the plant (five point scale): pre-emergence
Method: as §1

[1] = tested on: Alopecurus myosuroides (ALOMY); assay: Glasshouse herbicide test, pre- and post-emergence, Alopecurus myosuroides; details: 250 g/h, evaluated after 13 days; for ALOMY POST, percentage damage caused to the plant (five point scale): post-emergence; for ALOMY PRE, percentage damage caused to the plant (five point scale): pre-emergence
Method: as §1

[2] = tested on: Echinochloa crus-galli (ECHCG); assay: Glasshouse herbicide test, pre- and post-emergence, Echinochloa crus-galli; details: 250 g/h, evaluated after 13 days; for ECHCG POST, percentage damage caused to the plant (five point scale): post-emergence; for ECHCG PRE, percentage damage caused to the plant (five point scale): pre-emergence
Method: as §1

CC#Cc1ccc(C2=C(OC(=O)C(C)C)[C@@H]3[C@H](C2=O)[C@@H]2O[C@H]3C[C@@H]2COC)c(OC)c1 (racemic) [Compound 1.27]
5 (5=80-100%): LOLPE POST, percentage damage caused to the plant (five point scale) (Lolium perenne (LOLPE)) | LOLPE PRE, percentage damage caused to the plant (five point scale) (Lolium perenne (LOLPE)) | AVEFA POST, percentage damage caused to the plant (five point scale) (Avena fatua (AVEFA)) | AVEFA PRE, percentage damage caused to the plant (five point scale) (Avena fatua (AVEFA)) | SETFA POST, percentage damage caused to the plant (five point scale) (Setaria faberi (SETFA)) | SETFA PRE, percentage damage caused to the plant (five point scale) (Setaria faberi (SETFA)) | ALOMY POST, percentage damage caused to the plant (five point scale) [1] | ALOMY PRE, percentage damage caused to the plant (five point scale) [1] | ECHCG POST, percentage damage caused to the plant (five point scale) [2] | ECHCG PRE, percentage damage caused to the plant (five point scale) [2]

CC#Cc1ccc(C2C(=O)[C@H]3[C@@H]4CC[C@@](COC)(O4)[C@H]3C2=O)c(OC)c1 (mixture of isomers) [Compound 1.12]
5 (5=80-100%): LOLPE POST, percentage damage caused to the plant (five point scale) (Lolium perenne (LOLPE)) | LOLPE PRE, percentage damage caused to the plant (five point scale) (Lolium perenne (LOLPE)) | AVEFA POST, percentage damage caused to the plant (five point scale) (Avena fatua (AVEFA)) | AVEFA PRE, percentage damage caused to the plant (five point scale) (Avena fatua (AVEFA)) | SETFA POST, percentage damage caused to the plant (five point scale) (Setaria faberi (SETFA)) | SETFA PRE, percentage damage caused to the plant (five point scale) (Setaria faberi (SETFA)) | ALOMY POST, percentage damage caused to the plant (five point scale) [1] | ALOMY PRE, percentage damage caused to the plant (five point scale) [1] | ECHCG POST, percentage damage caused to the plant (five point scale) [2] | ECHCG PRE, percentage damage caused to the plant (five point scale) [2]

CC#Cc1ccc(C2=C(OC(C)=O)[C@@H]3[C@H](C2=O)[C@@H]2O[C@H]3C[C@@H]2COC)c(OC)c1 (racemic) [Compound 1.29]
5 (5=80-100%): LOLPE POST, percentage damage caused to the plant (five point scale) (Lolium perenne (LOLPE)) | LOLPE PRE, percentage damage caused to the plant (five point scale) (Lolium perenne (LOLPE)) | AVEFA POST, percentage damage caused to the plant (five point scale) (Avena fatua (AVEFA)) | AVEFA PRE, percentage damage caused to the plant (five point scale) (Avena fatua (AVEFA)) | SETFA POST, percentage damage caused to the plant (five point scale) (Setaria faberi (SETFA)) | SETFA PRE, percentage damage caused to the plant (five point scale) (Setaria faberi (SETFA)) | ALOMY POST, percentage damage caused to the plant (five point scale) [1] | ALOMY PRE, percentage damage caused to the plant (five point scale) [1] | ECHCG POST, percentage damage caused to the plant (five point scale) [2] | ECHCG PRE, percentage damage caused to the plant (five point scale) [2]

CC#Cc1ccc(C2C(=O)[C@@H]3[C@@H]4O[C@@H](C[C@@H]4C)[C@@H]3C2=O)c(OC)c1 (mixture of isomers) [Compound 1.3]
5 (5=80-100%): LOLPE POST, percentage damage caused to the plant (five point scale) (Lolium perenne (LOLPE)) | LOLPE PRE, percentage damage caused to the plant (five point scale) (Lolium perenne (LOLPE)) | AVEFA POST, percentage damage caused to the plant (five point scale) (Avena fatua (AVEFA)) | AVEFA PRE, percentage damage caused to the plant (five point scale) (Avena fatua (AVEFA)) | SETFA POST, percentage damage caused to the plant (five point scale) (Setaria faberi (SETFA)) | SETFA PRE, percentage damage caused to the plant (five point scale) (Setaria faberi (SETFA)) | ALOMY POST, percentage damage caused to the plant (five point scale) [1] | ALOMY PRE, percentage damage caused to the plant (five point scale) [1] | ECHCG POST, percentage damage caused to the plant (five point scale) [2] | ECHCG PRE, percentage damage caused to the plant (five point scale) [2]
